Measured values reported in ChEMBL document CHEMBL1201862, “PubChem BioAssay data set” (2004).
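Growth conditions: 96-well plates. Treatment: test compound, 48 hours, 5 concentrations. Analysis: linear interpolation between bracketing concentrations; unreached endpoints set to highest concentration. At the GI50, growth is halved.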 Active and inactive are the calls of the source. Cut-off read from the data, not from the text of the source: active = GI50 up to about 1.1 µM and inactive = higher.

Columns and labels:
Experiment in all cases: growth of human tumour cells (NCI), 48 h
SF-539 = test system: SF-539
MOLT-4 = test system: MOLT-4
SK-MEL-2 = test system: SK-MEL-2
CCRF-CEM = test system: CCRF-CEM
IGROV-1 = test system: IGROV-1
HCT-116 = test system: HCT-116
KM-20L2 = test system: KM-20L2
NCI-H522 = test system: NCI-H522
SK-OV-3 = test system: SK-OV-3
SF-268 = test system: SF-268
SN12C = test system: SN12C
SR = test system: SR
U-251 = test system: U-251
NCI-H460 = test system: NCI-H460
TK-10 = test system: TK-10
NCI-H226 = test system: NCI-H226
XF498 = test system: XF498
NCI-H23 = test system: NCI-H23
HCC 2998 = test system: HCC 2998
SK-MEL-5 = test system: SK-MEL-5
UACC-257 = test system: UACC-257
HOP-92 = test system: HOP-92
DMS-273 = test system: DMS-273
K562 = test system: K562
A549 = test system: A549
SNB-19 = test system: SNB-19
ACHN = test system: ACHN
OVCAR-5 = test system: OVCAR-5
M14 = test system: M14
SNB-75 = test system: SNB-75
SW-620 = test system: SW-620
CAKI-1 = test system: CAKI-1
EKVX = test system: EKVX
786-0 = test system: 786-0
SF-295 = test system: SF-295
KM12 = test system: KM12
UACC-62 = test system: UACC-62
HCT-15 = test system: HCT-15
OVCAR-4 = test system: OVCAR-4
DMS-114 = test system: DMS-114
LXFL 529 = test system: LXFL 529
RPMI-8226 = test system: RPMI-8226
DLD-1 = test system: DLD-1
HL-60 = test system: HL-60
SNB-78 = test system: SNB-78
A498 = test system: A498
HT-29 = test system: HT-29
OVCAR-8 = test system: OVCAR-8
UO-31 = test system: UO-31
COLO 205 = test system: COLO 205
M19-MEL = test system: M19-MEL
HOP-62 = test system: HOP-62
LOX IMVI = test system: LOX IMVI
HOP-18 = test system: HOP-18
SK-MEL-28 = test system: SK-MEL-28
RXF 393 = test system: RXF 393
OVCAR-3 = test system: OVCAR-3
Malme-3M = test system: Malme-3M

What does the source list for C=CCN1/C(=C2\SC(=S)N(c3ccc(C)cc3)C2=O)Sc2c1ncn(C)c2=O?
GI50 (SF-539): 90.8 µM (inactive); GI50 (MOLT-4): > 100 µM (inactive); GI50 (SK-MEL-2): > 100 µM (inactive); GI50 (CCRF-CEM): > 100 µM (inactive); GI50 (IGROV-1): > 100 µM (inactive); GI50 (HCT-116): > 100 µM (inactive); GI50 (KM-20L2): > 100 µM (inactive); GI50 (NCI-H522): 46.7 µM (inactive); GI50 (SK-OV-3): > 100 µM (inactive); GI50 (SF-268): > 100 µM (inactive); GI50 (SN12C): > 100 µM (inactive); GI50 (SR): 84.7 µM (inactive); GI50 (U-251): > 100 µM (inactive); GI50 (NCI-H460): > 100 µM (inactive); GI50 (TK-10): > 100 µM (inactive); GI50 (NCI-H226): 78.5 µM (inactive); GI50 (XF498): 73.5 µM (inactive); GI50 (NCI-H23): > 100 µM (inactive); GI50 (HCC 2998): 47.6 µM (inactive); GI50 (SK-MEL-5): 38.4 µM (inactive); GI50 (UACC-257): > 100 µM (inactive); GI50 (HOP-92): > 100 µM (inactive); GI50 (DMS-273): > 100 µM (inactive); GI50 (K562): > 100 µM (inactive); GI50 (A549): > 100 µM (inactive); GI50 (SNB-19): > 100 µM (inactive); GI50 (ACHN): > 100 µM (inactive); GI50 (OVCAR-5): > 100 µM (inactive); GI50 (M14): > 100 µM (inactive); GI50 (SNB-75): 40.7 µM (inactive); GI50 (SW-620): > 100 µM (inactive); GI50 (CAKI-1): > 100 µM (inactive); GI50 (EKVX): 69 µM (inactive); GI50 (786-0): 71.1 µM (inactive); GI50 (SF-295): 90.8 µM (inactive); GI50 (KM12): > 100 µM (inactive); GI50 (UACC-62): > 100 µM (inactive); GI50 (HCT-15): > 100 µM; GI50 (OVCAR-4): 94.2 µM (inactive); GI50 (DMS-114): > 100 µM (inactive); GI50 (LXFL 529): 59.7 µM (inactive); GI50 (RPMI-8226): > 100 µM (inactive); GI50 (DLD-1): > 100 µM (inactive); GI50 (HL-60): 83.4 µM (inactive); GI50 (SNB-78): 90.6 µM (inactive); GI50 (A498): 51.1 µM (inactive); GI50 (HT-29): > 100 µM (inactive); GI50 (OVCAR-8): 95.1 µM (inactive); GI50 (UO-31): > 100 µM (inactive); GI50 (COLO 205): 96.8 µM (inactive); GI50 (M19-MEL): > 100 µM (inactive); GI50 (HOP-62): 69.2 µM (inactive); GI50 (LOX IMVI): > 100 µM (inactive)

Which results are given for C/N=N/N(C)C(=O)NC?
GI50 (SF-539): > 100 µM (inactive); GI50 (MOLT-4): > 100 µM (inactive); GI50 (SK-MEL-2): > 100 µM (inactive); GI50 (CCRF-CEM): > 100 µM (inactive); GI50 (IGROV-1): > 100 µM (inactive); GI50 (HOP-18): > 100 µM (inactive); GI50 (HCT-116): > 100 µM (inactive); GI50 (KM-20L2): > 100 µM (inactive); GI50 (NCI-H522): > 100 µM (inactive); GI50 (SK-OV-3): > 100 µM (inactive); GI50 (SF-268): > 100 µM (inactive); GI50 (SN12C): > 100 µM (inactive); GI50 (SK-MEL-28): > 100 µM (inactive); GI50 (SR): > 100 µM (inactive); GI50 (U-251): > 100 µM (inactive); GI50 (NCI-H460): > 100 µM (inactive); GI50 (TK-10): > 100 µM (inactive); GI50 (NCI-H23): > 100 µM (inactive); GI50 (HCC 2998): > 100 µM (inactive); GI50 (SK-MEL-5): > 100 µM (inactive); GI50 (HOP-92): > 100 µM (inactive); GI50 (K562): > 100 µM (inactive); GI50 (A549): > 100 µM (inactive); GI50 (SNB-19): > 100 µM (inactive); GI50 (ACHN): > 100 µM (inactive); GI50 (OVCAR-5): > 100 µM (inactive); GI50 (M14): > 100 µM (inactive); GI50 (SNB-75): > 100 µM (inactive); GI50 (SW-620): > 100 µM (inactive); GI50 (CAKI-1): > 100 µM (inactive); GI50 (RXF 393): > 100 µM (inactive); GI50 (786-0): > 100 µM (inactive); GI50 (SF-295): > 100 µM (inactive); GI50 (KM12): > 100 µM (inactive); GI50 (UACC-62): > 100 µM (inactive); GI50 (HCT-15): > 100 µM; GI50 (OVCAR-4): > 100 µM (inactive); GI50 (DMS-114): > 100 µM (inactive); GI50 (LXFL 529): > 100 µM (inactive); GI50 (RPMI-8226): > 100 µM (inactive); GI50 (DLD-1): > 100 µM (inactive); GI50 (HL-60): > 100 µM (inactive); GI50 (A498): > 100 µM (inactive); GI50 (OVCAR-3): > 100 µM (inactive); GI50 (HT-29): > 100 µM (inactive); GI50 (OVCAR-8): > 100 µM (inactive); GI50 (UO-31): > 100 µM (inactive); GI50 (COLO 205): > 100 µM (inactive); GI50 (M19-MEL): > 100 µM (inactive); GI50 (HOP-62): > 100 µM (inactive); GI50 (Malme-3M): > 100 µM (inactive); GI50 (LOX IMVI): > 100 µM (inactive)

What does the source list for CCOC(=O)Cc1nc(/C(C#N)=C/c2ccco2)[nH]c(=O)c1C#N?
GI50 (SF-539): > 100 µM (inactive); GI50 (MOLT-4): > 100 µM (inactive); GI50 (SK-MEL-2): > 100 µM (inactive); GI50 (CCRF-CEM): > 100 µM (inactive); GI50 (IGROV-1): > 100 µM (inactive); GI50 (HOP-18): > 100 µM (inactive); GI50 (HCT-116): > 100 µM (inactive); GI50 (KM-20L2): > 100 µM (inactive); GI50 (NCI-H522): 39.2 µM (inactive); GI50 (SK-OV-3): > 100 µM (inactive); GI50 (SN12C): > 100 µM (inactive); GI50 (SR): 97.1 µM (inactive); GI50 (U-251): > 100 µM (inactive); GI50 (NCI-H460): > 100 µM (inactive); GI50 (TK-10): > 100 µM (inactive); GI50 (NCI-H226): > 100 µM (inactive); GI50 (NCI-H23): > 100 µM (inactive); GI50 (HCC 2998): > 100 µM (inactive); GI50 (SK-MEL-5): > 100 µM (inactive); GI50 (UACC-257): > 100 µM (inactive); GI50 (HOP-92): > 100 µM (inactive); GI50 (DMS-273): > 100 µM (inactive); GI50 (K562): > 100 µM (inactive); GI50 (A549): > 100 µM (inactive); GI50 (SNB-19): > 100 µM (inactive); GI50 (ACHN): > 100 µM (inactive); GI50 (OVCAR-5): > 100 µM (inactive); GI50 (M14): > 100 µM (inactive); GI50 (SNB-75): > 100 µM (inactive); GI50 (SW-620): > 100 µM (inactive); GI50 (CAKI-1): > 100 µM (inactive); GI50 (RXF 393): > 100 µM (inactive); GI50 (EKVX): > 100 µM (inactive); GI50 (786-0): > 100 µM (inactive); GI50 (SF-295): 43.9 µM (inactive); GI50 (KM12): > 100 µM (inactive); GI50 (UACC-62): 35.4 µM (inactive); GI50 (HCT-15): > 100 µM; GI50 (OVCAR-4): > 100 µM (inactive); GI50 (LXFL 529): > 100 µM (inactive); GI50 (RPMI-8226): > 100 µM (inactive); GI50 (DLD-1): > 100 µM (inactive); GI50 (HL-60): 95.3 µM (inactive); GI50 (SNB-78): 37.8 µM (inactive); GI50 (OVCAR-3): > 100 µM (inactive); GI50 (HT-29): > 100 µM (inactive); GI50 (OVCAR-8): > 100 µM (inactive); GI50 (UO-31): > 100 µM (inactive); GI50 (COLO 205): 33.5 µM (inactive); GI50 (M19-MEL): > 100 µM (inactive); GI50 (HOP-62): > 100 µM (inactive); GI50 (LOX IMVI): > 100 µM (inactive)
